According to patent US5935945A, “Methods of treating or preventing cardiac arrhythmia” (Merck & Co., Inc., priority 1997, dated 1999):
Read-outs that look alike come from different tables or passages of the source.

Experiments:
[1] = target: T1, IKr (rapidly activating delayed rectifier K^+ current) (Cavia porcellus, UniProt O08703); assay: Voltage-clamp measurement of IKr in guinea pig ventricular myocytes; type: cell-based; settings: @ 3 μM; read-out: % Block (Guinea Pig Ventricle) IKr
T1 construct: Guinea pig ventricular myocytes were isolated; from tissue; host or cells: isolated guinea pig ventricular myocytes
T1 sequence (O08703 1-1294): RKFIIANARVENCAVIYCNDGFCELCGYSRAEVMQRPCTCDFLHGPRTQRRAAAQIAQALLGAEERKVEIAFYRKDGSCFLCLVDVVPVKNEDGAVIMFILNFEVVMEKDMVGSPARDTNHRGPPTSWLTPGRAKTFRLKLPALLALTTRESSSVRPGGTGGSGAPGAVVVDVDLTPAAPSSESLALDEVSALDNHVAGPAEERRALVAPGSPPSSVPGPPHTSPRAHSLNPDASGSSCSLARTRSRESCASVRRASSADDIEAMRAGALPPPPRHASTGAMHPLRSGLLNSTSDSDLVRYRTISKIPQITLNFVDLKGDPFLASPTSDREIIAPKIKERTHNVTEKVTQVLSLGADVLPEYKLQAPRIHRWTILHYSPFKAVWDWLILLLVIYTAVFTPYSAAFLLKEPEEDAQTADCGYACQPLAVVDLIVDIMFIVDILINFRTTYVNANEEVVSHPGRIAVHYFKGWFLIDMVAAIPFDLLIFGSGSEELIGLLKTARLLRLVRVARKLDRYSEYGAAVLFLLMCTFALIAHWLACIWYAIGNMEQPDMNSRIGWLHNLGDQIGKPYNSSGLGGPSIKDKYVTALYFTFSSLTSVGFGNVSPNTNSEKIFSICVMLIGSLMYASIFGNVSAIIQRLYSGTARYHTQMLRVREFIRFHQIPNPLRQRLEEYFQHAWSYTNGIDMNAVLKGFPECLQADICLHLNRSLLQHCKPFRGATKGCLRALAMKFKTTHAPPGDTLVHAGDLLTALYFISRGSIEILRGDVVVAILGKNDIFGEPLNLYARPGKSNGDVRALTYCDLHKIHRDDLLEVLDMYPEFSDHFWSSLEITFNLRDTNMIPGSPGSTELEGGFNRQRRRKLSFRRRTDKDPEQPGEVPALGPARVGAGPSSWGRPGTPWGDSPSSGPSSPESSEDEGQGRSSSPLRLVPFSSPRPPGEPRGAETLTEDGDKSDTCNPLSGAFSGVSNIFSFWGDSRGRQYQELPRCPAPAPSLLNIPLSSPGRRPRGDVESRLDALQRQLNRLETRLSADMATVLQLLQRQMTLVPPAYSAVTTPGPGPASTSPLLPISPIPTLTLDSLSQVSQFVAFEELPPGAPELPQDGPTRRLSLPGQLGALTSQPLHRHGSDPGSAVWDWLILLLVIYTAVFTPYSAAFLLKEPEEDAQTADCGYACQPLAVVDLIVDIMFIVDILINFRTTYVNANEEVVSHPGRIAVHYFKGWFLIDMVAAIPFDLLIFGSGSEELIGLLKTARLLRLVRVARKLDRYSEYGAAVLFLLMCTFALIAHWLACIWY
Method: (§1) Guinea pig ventricular myocytes were isolated using a modification of the procedure described by Mitra et al., Am. J. Physiol. 249:H1056-60 (1985). Excised hearts were perfused through the aorta (retrograde fashion) at a rate of 10 ml/min with oxygenated, warmed (37° C.) solutions described below. The heart was initially perfused for 7 minutes with a Tyrode's solution containing, (in mM): 132 NaCl, 4 KCl, 1.2 MgCl2, 10 HEPES, 5 glucose, pH=7.2. The heart was then perfused with the same nominally Ca^2+ -free solution containing 150 units/ml Type II collagenase (Worthington) and 0.5 units/ml Type XIV protease (Sigma) for 8 minutes. This perfusate was followed by a Tyrode's solution containing 0.2 mM CaCl2 (without enzymes) for 5 minutes. The digested ventricles were cut into small pieces and gently shaken until cells were visibly dispersed. The cells were stored at room temperature until use, within 8 hours after isolation.
(§2) The suction microelectrode technique described by Giles, W. R. and Shibata, E. F., "Voltage clamp of bull-frog cardiac pacemaker cells: a quantitative analysis of potassium currents", J. Physiol. 368:265-292 (1985) was used to voltage clamp the cells. Microelectrodes were made by using a two stage puller from square bore (1.0 mm o.d.) borosilicate capillary tubing. Pipettes were filled with 0.5 M K gluconate, 25 mM KCl and 5 mM K2 ATP. The electrodes had resistances of 3 to 7 M.OMEGA. when filled with this solution. After establishing whole-cell recording mode, negative pressure was maintained on the pipette using a 1 ml gas-tight syringe attached via air tight tubing to the suction port of the microelectrode holder. This minimized dialysis of the cell with the pipette solution.
(§3) To record K^+ currents, the cells were bathed in a Ca^2+ -free Tyrode's solution containing […]. […] To record Ca^2+ currents, the cells were bathed in Tyrode's solution containing 1.8 mM Ca^2+ without nisoldipine. The cell chamber was superfused with solutions at a rate of 1-2 ml/minute, while maintaining the temperature at 35±1° C. A List EPC-7 clamp amplifier was used to voltage clamp the isolated cells. […] (Sanguinetti M. C. and Jurkiewicz, N. K., "Two components of cardiac delayed rectifier K^+ current: Differential sensitivity to block by Class III antiarrhythmic agents", J. Gen Physiol 1990; 96:194-214.) Data was analyzed as % block from control membrane currents.
(§4) Nisoldipine was prepared as a 4 mM stock solution in polyethylene glycol 200. […] At the final concentrations used neither polyethylene glycol 200 nor dimethyl sulfoxide had any effect on any of the measured membrane currents.
(§5) Selectivity for block of cardiac K^+ channels, IK1, IKr, and IKs was determined as previously described in guinea pig ventricular myocytes (U.S. Pat. No. 5,428,031).

[2] = test system: IK1 (inward rectifier K^+ current); assay: Voltage-clamp measurement of IK1 in guinea pig ventricular myocytes; type: cell-based; settings: @ 3 μM
Method: as §1, §2, §3, §4, §5

[3] = target: T2, IKs (slowly activating delayed rectifier K^+ current) (Cavia porcellus, UniProt O70344); assay: Voltage-clamp measurement of IKs in guinea pig ventricular myocytes; type: cell-based; settings: @ 3 μM; read-out: % Block (Guinea Pig Ventricle) IKs
T2 construct: Guinea pig ventricular myocytes were isolated; from tissue; host or cells: isolated guinea pig ventricular myocytes
Method: as §1, §2, §3, §4, §5

T2 sequence (O70344 whole entry): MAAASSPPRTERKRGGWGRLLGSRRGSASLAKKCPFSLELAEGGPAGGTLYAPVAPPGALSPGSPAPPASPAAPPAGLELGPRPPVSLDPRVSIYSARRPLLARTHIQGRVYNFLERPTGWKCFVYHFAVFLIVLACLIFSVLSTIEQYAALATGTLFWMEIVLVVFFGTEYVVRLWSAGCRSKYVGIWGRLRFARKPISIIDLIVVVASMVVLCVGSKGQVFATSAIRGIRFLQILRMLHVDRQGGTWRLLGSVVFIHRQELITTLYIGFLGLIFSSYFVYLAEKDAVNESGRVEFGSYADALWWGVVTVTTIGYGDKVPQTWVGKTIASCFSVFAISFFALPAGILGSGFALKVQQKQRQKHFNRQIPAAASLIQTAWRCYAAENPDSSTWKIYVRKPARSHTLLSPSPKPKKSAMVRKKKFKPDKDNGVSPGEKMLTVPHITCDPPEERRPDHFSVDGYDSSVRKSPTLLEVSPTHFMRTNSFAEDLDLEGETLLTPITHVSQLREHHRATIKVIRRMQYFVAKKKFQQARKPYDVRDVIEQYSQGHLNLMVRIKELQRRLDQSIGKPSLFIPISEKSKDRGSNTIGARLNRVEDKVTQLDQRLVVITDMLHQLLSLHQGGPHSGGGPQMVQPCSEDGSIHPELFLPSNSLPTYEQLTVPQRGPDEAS
T2 sequence (Q60409 whole entry partner): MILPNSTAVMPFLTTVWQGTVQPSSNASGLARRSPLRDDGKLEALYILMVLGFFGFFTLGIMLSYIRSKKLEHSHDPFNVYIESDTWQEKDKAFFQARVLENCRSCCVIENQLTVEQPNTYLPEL
Method for atrial flutter: In this model, atrial flutter was induced following a Y-shaped surgical lesion comprised of an intercaval incision and a connecting incision across the right atrium. […] Bipolar electrodes also were sutured to the left ventricle for measurement of ventricular excitation threshold (VET) and ventricular relative (VRRP at 2× VET) and effective refractory periods (VERP at 10×VET). The following cardiac electrophysiologic parameters also were measured before test agent administration and at the termination of the study: AH interval, an index of AV nodal conduction; HV interval, an index of His-ventricular conduction time; P-A interval, an index of intra-atrial conduction; and H-EG interval, an index of ventricular conduction; and paced ECG QT interval. AV nodal functional refractory period (AVNFRP) and SA conduction time (SACT) were determined by the introduction of atrial extrastimuli during sinus rhythm, and the monitoring of ventricular response. Electrocardiographic intervals were determined during sinus rhythm; the rate-corrected ECG QTc interval was calculated as: QTc=QT (msec)/√R-R (sec).
Sustained atrial flutter was initiated in three dogs by electrical burst pacing (6-20 Hz) of the atria; atrial rates ranged from 440-530 cycles/min.

CC1CCC(C(C)C)C(P(=O)(c2ccccc2)c2ccccc2)C1 (centres unmarked) [Compound D, (2-Isopropyl-5-methylcyclohexyl)diphenylphosphine oxide]
inhibition at 3 µM [1]: 3% | % Block (Guinea Pig Ventricle) IK1 [2]: 15% | inhibition at 3 µM [3]: 25% | effect on ventricular function (atrial flutter; dog, in vivo): no indication of effect on ventricular function | time to termination of atrial arrhythmia after test agent administration (atrial flutter; i.v. bolus 1 mg/kg (three dogs) or 10 mg/kg (fourth dog)): 10 to 120 s | atrial rate during atrial flutter (atrial flutter; i.v. bolus 1 mg/kg (three dogs) or 10 mg/kg (fourth dog), initial rates 450-560 cycles/min): slowed atrial rate | termination of atrial arrhythmia (atrial flutter; i.v. bolus 1 mg/kg, in three of four dogs): terminated the atrial arrhythmia | termination of atrial arrhythmia (atrial flutter; i.v. bolus 10 mg/kg, in the fourth of four dogs): terminated the atrial arrhythmia
